± gives the expanded uncertainty stated by the source.

The speed of sound is the propagation velocity of pressure waves in the medium.

The conditions of data set [1]: 101 kPa, Liquid, Linear variable-path acoustic interferometer.
The nature of data set [2]: xn = mol fraction of the nth substance listed. Particulars: 101 kPa, Liquid, Linear variable-path acoustic interferometer, x2 = 0.

On to `CCCCO` [butan-1-ol], for which the speed of sound was 1282.2 ± 1.9 m/s in data set [1] (288.15 K); 1262.4 ± 1.9 m/s in data set [1] (293.15 K); 1242.6 ± 1.8 m/s in data set [1] (298.15 K); 1225.8 ± 1.8 m/s in data set [1] (303.15 K); 1207.6 ± 1.8 m/s in data set [1] (308.15 K); 1189.2 ± 1.8 m/s in data set [1] (313.15 K). The speed of sound in data set [1] (318.15 K) is listed as 1170 ± 1.8 m/s.
`CCCCO` [butan-1-ol] + C=CC(=O)OC: the speed of sound is reported as 1282.2 ± 1.9 m/s in data set [2] (288.15 K); 1262.4 ± 1.9 m/s in data set [2] (293.15 K); 1242.6 ± 1.8 m/s in data set [2] (298.15 K); 1225.8 ± 1.8 m/s in data set [2] (303.15 K); 1207.6 ± 1.8 m/s in data set [2] (308.15 K); 1189.2 ± 1.8 m/s in data set [2] (313.15 K). In addition, in data set [2] (318.15 K), the speed of sound came out at 1170 ± 1.8 m/s.
Consider `CCCCCCCCCCO` [decan-1-ol], for which the speed of sound in data set [1] (288.15 K) worked out at 1410.6 ± 2 m/s; in data set [1] (293.15 K) it was 1393.6 ± 2 m/s; in data set [1] (298.15 K), 1377.3 ± 2 m/s; in data set [1] (303.15 K), 1359.8 ± 2 m/s; in data set [1] (308.15 K), 1345.7 ± 2 m/s; in data set [1] (313.15 K), 1326.7 ± 2 m/s. Moreover, the speed of sound in data set [1] (318.15 K) stood at 1312.1 ± 1.9 m/s.
In the case of `CCCCCCCCCCO` [decan-1-ol] + C=CC(=O)OC, the speed of sound in data set [2] (288.15 K) is on record as 1410.6 ± 2 m/s; in data set [2] (293.15 K), 1393.6 ± 2 m/s; in data set [2] (298.15 K) it was 1377.3 ± 2 m/s; in data set [2] (303.15 K) it was 1359.8 ± 2 m/s; in data set [2] (308.15 K) it was 1345.7 ± 2 m/s; in data set [2] (313.15 K), 1326.7 ± 2 m/s. For the same molecule, the speed of sound in data set [2] (318.15 K) stood at 1312.1 ± 1.9 m/s.
In the case of `CCCCCCO` [hexan-1-ol], the speed of sound in data set [1] (288.15 K) turned out to be 1339.2 ± 1.9 m/s; in data set [1] (293.15 K), 1321.2 ± 1.9 m/s; in data set [1] (298.15 K) it was 1306.9 ± 1.9 m/s; in data set [1] (303.15 K) it was 1289.5 ± 1.9 m/s; in data set [1] (308.15 K), 1275.7 ± 1.9 m/s; in data set [1] (313.15 K), 1256.3 ± 1.9 m/s. The speed of sound in data set [1] (318.15 K) amounted to 1237.5 ± 1.8 m/s.
Take `CCCCCCO` [hexan-1-ol] + C=CC(=O)OC: the speed of sound in data set [2] (288.15 K) was 1339.2 ± 1.9 m/s; in data set [2] (293.15 K), 1321.2 ± 1.9 m/s; in data set [2] (298.15 K), 1306.9 ± 1.9 m/s; in data set [2] (303.15 K), 1289.5 ± 1.9 m/s; in data set [2] (308.15 K), 1275.7 ± 1.9 m/s; in data set [2] (313.15 K) it was 1256.3 ± 1.9 m/s. In addition, the speed of sound in data set [2] (318.15 K) is recorded as 1237.5 ± 1.8 m/s.
As for `C=CC(=O)OC` [methyl propenoate], the speed of sound in data set [1] (288.15 K) came out at 1226.6 ± 1.8 m/s; in data set [1] (293.15 K) it was 1204.6 ± 1.8 m/s; in data set [1] (298.15 K), 1183.6 ± 1.8 m/s; in data set [1] (303.15 K), 1162.2 ± 1.7 m/s; in data set [1] (308.15 K), 1139.1 ± 1.7 m/s; in data set [1] (313.15 K) it was 1117.8 ± 1.7 m/s. The speed of sound in data set [1] (318.15 K) was 1095.7 ± 1.7 m/s.
`CCCCCCCCO` [octan-1-ol]: the speed of sound in data set [1] (288.15 K) was 1390.2 ± 2 m/s; in data set [1] (293.15 K), 1371.5 ± 2 m/s; in data set [1] (298.15 K), 1352.4 ± 2 m/s; in data set [1] (303.15 K) it was 1333.1 ± 2 m/s; in data set [1] (308.15 K), 1315.7 ± 2 m/s; in data set [1] (313.15 K), 1298.9 ± 1.9 m/s. In data set [1] (318.15 K), the speed of sound came to 1282.9 ± 1.9 m/s.
Turning to `CCCCCCCCO` [octan-1-ol] + C=CC(=O)OC, the speed of sound in data set [2] (288.15 K) is reported as 1390.2 ± 2 m/s; in data set [2] (293.15 K), 1371.5 ± 2 m/s; in data set [2] (298.15 K), 1352.4 ± 2 m/s; in data set [2] (303.15 K), 1333.1 ± 2 m/s; in data set [2] (308.15 K), 1315.7 ± 2 m/s; in data set [2] (313.15 K), 1298.9 ± 1.9 m/s. In data set [2] (318.15 K), the speed of sound is 1282.9 ± 1.9 m/s.
